Laboratory results published in US20170129916A1, “NOVEL BETULINIC PROLINE IMIDAZOLE DERIVATIVES AS HIV INHIBITORS” (HETERO RESEARCH FOUNDATION, priority 2014, published 2017).

Experiments:
[1] = system: HIV-1 strains, for e.g., 92HT599; experiment: Antiviral activity: p24 estimation in MT-2 cells infected with HIV-1; assay type: cell-based; settings: Human immunodeficiency virus 1, MT2, MT-2 cells infected with HIV-1, p24, ~96 hours; for IC50: read-out: Antiviral activity IC50 (nM) Efficacy IC50
Method in brief: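 MT-2 cells infected with HIV-1 (e.g. 92HT599), plated at 30,000 cells/well with compound (DMSO ≤1%) and incubated ~96 h. Supernatant p24 quantified by kit; percent inhibition relative to vehicle controls.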

[2] = Single dose oral pharmacokinetic study; assay type: in vivo; settings: mouse, mice, 30 mg/kg, plasma; for AUC(0-t): read-out: Mice oral PK @30 mg/kg AUC 0-t; for Cmax: read-out: Mice oral PK @30 mg/kg Cmax
Method in brief: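 Rats or mice received 30 mg/kg orally at 10 ml/kg dose volume. Retro-orbital blood was taken into K3 EDTA at defined intervals under light ether anesthesia and centrifuged to plasma. Plasma levels were measured by LC-MS-MS.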

SMILES	IC50 [1]	AUC(0-t) [2]	Cmax [2]	inhibition at 0.1 µM [1]	inhibition at 1 µM [1]
C=C(C)[C@@H]1CC[C@]2(C(=O)N3C[C@H](OCCOC)C[C@H]3c3nc(-c4ccc(F)cc4)c[nH]3)CC[C@]3(C)[C@H](CC[C@@H]4[C@@]5(C)CC[C@H](OC(=O)CC(C)(C)C(=O)O)C(C)(C)[C@@H]5CC[C@]43C)[C@@H]12 [Compound 45, 4-(((1R,3aS,5aR,5bR,7aR,9S,11aR,11bR,13aR,13bR)-3a-((2S,4R)-2-(4-(4-fluorophenyl)-1H-imidazol-2-yl)-4-(2-methoxyethoxy)pyrrolidine-1-carbonyl)-5a,5b,8,8,11a-pentamethyl-1-(prop-1-en-2-yl)icosahydro-1H-cyclopenta[a]chrysen-9-yl)oxy)-2,2-dimethyl-4-oxo butanoic acid]	0.3 nM	275 µg·h/mL	11500 ng/mL	–	–
C=C(C)[C@@H]1CC[C@]2(C(=O)N3CCC[C@H]3c3ncc(-c4ccccc4)[nH]3)CC[C@]3(C)[C@H](CC[C@@H]4[C@@]5(C)CC[C@H](OC(=O)C[C@H]6C[C@@H](C(=O)O)C6(C)C)C(C)(C)[C@@H]5CC[C@]43C)[C@@H]12 [Compound 21, (1R,3R)-2,2-dimethyl-3-(2-oxo-2-(((1R,3aS,5aR,5bR,7aR,9S,11aR,11bR,13aR,13bR)-5a,5b,8,8,11a-pentamethyl-3a-((S)-2-(5-phenyl-1H-imidazol-2-yl)pyrrolidine-1-carbonyl)-1-(prop-1-en-2-yl)icosahydro-1H-cyclopenta[a]chrysen-9-yl)oxy)ethyl)cyclo butane-1-carboxylic acid]	1.29 nM	269 µg·h/mL	13000 ng/mL	–	–
CC(C)(C)c1c[nH]c([C@@H]2CCCN2C(=O)[C@]23CC[C@@H](C4(C)CC4)[C@@H]2[C@H]2CC[C@@H]4[C@@]5(C)CC[C@H](OC(=O)[C@H]6C[C@@H](C(=O)O)C6(C)C)C(C)(C)[C@@H]5CC[C@@]4(C)[C@]2(C)CC3)n1 [Compound 56, (1R,3S)-3-((((1R,3aS,5aR,5bR,7aR,9S,11aR,11bR,13aR,13bR)-3a-((S)-2-(4-(tert-butyl)-1H-imidazol-2-yl)pyrrolidine-1-carbonyl)-5a,5b,8,8,11a-pentamethyl-1-(1-methylcyclopropyl)icosahydro-1H-cyclopenta[a]chrysen-9-yl)oxy)carbonyl)-2,2-dimethylcyclobutane-1-carboxylic acid]	56.2 nM	375 µg·h/mL	12000 ng/mL	–	–
C=C(C)[C@@H]1CC[C@]2(C(=O)N3CCC[C@H]3c3ncc[nH]3)CC[C@]3(C)[C@H](CC[C@@H]4[C@@]5(C)CC[C@H](OC(=O)[C@H]6C[C@@H](C(=O)O)C6(C)C)C(C)(C)[C@@H]5CC[C@]43C)[C@@H]12 [Compound 36, (1R,3S)-3-((((1R,3aS,5aR,5bR,7aR,9S,11aR,11bR,13aR,13bR)-3a-((S)-2-(1H-imidazol-2-yl)pyrrolidine-1-carbonyl)-5a,5b,8,8,11a-pentamethyl-1-(prop-1-en-2-yl)icosahydro-1H-cyclopenta[a]chrysen-9-yl)oxy)carbonyl)-2,2-dimethylcyclobutane-1-carboxylic acid]	1.22 nM	158 µg·h/mL	10800 ng/mL	98%	100%
C=C(C)[C@@H]1CC[C@]2(C(=O)N3CCC[C@H]3c3ncc(C(F)(F)F)[nH]3)CC[C@]3(C)[C@H](CC[C@@H]4[C@@]5(C)CC[C@H](OC(=O)[C@H]6C[C@@H](C(=O)O)C6(C)C)C(C)(C)[C@@H]5CC[C@]43C)[C@@H]12 [Compound 34, (1R,3S)-2,2-dimethyl-3-((((1R,3aS,5aR,5b,7aR,9S,11aR,11bR,13aR,13bR)-5a,5b,8,8,11a-pentamethyl-1-(prop-1-en-2-yl)-3a-((S)-2-(5-(trifluoromethyl)-1H-imidazol-2-yl)pyrrolidine-1-carbonyl)icosahydro-1H-cyclopenta[a]chrysen-9-yl)oxy)carbonyl)cyclobutane-1-carboxylic acid]	6.66 nM	417 µg·h/mL	18700 ng/mL	86%	100%
C=C(C)[C@@H]1CC[C@]2(C(=O)N3CCC[C@H]3c3ncc(-c4cccc(F)c4)[nH]3)CC[C@]3(C)[C@H](CC[C@@H]4[C@@]5(C)CC[C@H](OC(=O)[C@H]6C[C@@H](C(=O)O)C6(C)C)C(C)(C)[C@@H]5CC[C@]43C)[C@@H]12 [Compound 4, (1R,3S)-3-((((1R,3aS,5aR,5bR,7aR,9S,11aR,11bR,13aR,13bR)-3a-((S)-2-(5-(3-fluorophenyl)-1H-imidazol-2-yl)pyrrolidine-1-carbonyl)-5a,5b,8,8,11a-pentamethyl-1-(prop-1-en-2-yl)icosahydro-1H-cyclopenta[a]chrysen-9-yl)oxy)carbonyl)-2,2-dimethylcyclobutane-1-carboxylic acid]	1.67 nM	398 µg·h/mL	14800 ng/mL	–	–
C=C(C)[C@@H]1CC[C@]2(C(=O)N3CCC[C@H]3c3nnc(-c4ccccc4)[nH]3)CC[C@]3(C)[C@H](CC[C@@H]4[C@@]5(C)CC[C@H](OC(=O)CC(C)(C)C(=O)O)C(C)(C)[C@@H]5CC[C@]43C)[C@@H]12 [Compound 48, 2,2-dimethyl-4-oxo-4-(((1R,3aS,5aR,5bR,7aR,9S,11aR,11bR,13aR,13bR)-5a,5b,8,8,11a-pentamethyl-3a-((S)-2-(5-phenyl-4H-1,2,4-triazol-3-yl)pyrrolidine-1-carbonyl)-1-(prop-1-en-2-yl)icosahydro-1H-cyclopenta[a]chrysen-9-yl)oxy)butanoic acid]	5.8 nM	299 µg·h/mL	20800 ng/mL	–	–
C=C(C)[C@@H]1CC[C@]2(C(=O)N3C[C@H](OCCOC)C[C@H]3c3nc(C(C)(C)C)c[nH]3)CC[C@]3(C)[C@H](CC[C@@H]4[C@@]5(C)CC[C@H](OC(=O)[C@H]6C[C@@H](C(=O)O)C6(C)C)C(C)(C)[C@@H]5CC[C@]43C)[C@@H]12 [Compound 31, (1R,3S)-3-((((1R,3aS,5aR,5bR,7aR,9S,11aR,11bR,13aR,13bR)-3a-((2S,4R)-2-(4-(tert-butyl)-1H-imidazol-2-yl)-4-(2-methoxyethoxy)pyrrolidine-1-carbonyl)-5a,5b,8,8,11a-pentamethyl-1-(prop-1-en-2-yl)icosahydro-1H-cyclopenta[a]chrysen-9-yl)oxy)carbonyl)-2,2-dimethylcyclobutane-1-carboxylic acid]	19.7 nM	195 µg·h/mL	9200 ng/mL	100%	100%
CC1([C@@H]2CC[C@]3(C(=O)N4CCC[C@H]4c4ncc(C(F)(F)F)[nH]4)CC[C@]4(C)[C@H](CC[C@@H]5[C@@]6(C)CC[C@H](OC(=O)[C@H]7C[C@@H](C(=O)O)C7(C)C)C(C)(C)[C@@H]6CC[C@]54C)[C@@H]23)CC1 [Compound 59, (1R,3S)-2,2-dimethyl-3-((((1R,3aS,5aR,5bR,7aR,9S,11aR,11bR,13aR,13bR)-5a,5b,8,8,11a-pentamethyl-1-(1-methylcyclopropyl)-3a-((S)-2-(5-(trifluoromethyl)-1H-imidazol-2-yl)pyrrolidine-1-carbonyl)icosahydro-1H-cyclopenta[a]chrysen-9-yl)oxy)carbonyl)cyclobutane-1-carboxylic acid]	55.4 nM	451 µg·h/mL	15700 ng/mL	71%	100%
C=C(C)[C@@H]1CC[C@]2(C(=O)N3CCC[C@H]3c3nc(C(C)C)c[nH]3)CC[C@]3(C)[C@H](CC[C@@H]4[C@@]5(C)CC[C@H](OC(=O)[C@H]6C[C@@H](C(=O)O)C6(C)C)C(C)(C)[C@@H]5CC[C@]43C)[C@@H]12 [Compound 14, (1R,3S)-3-((((1R,3aS,5aR,5bR,7aR,9S,11aR,11bR,13aR,13bR)-3a-((S)-2-(4-isopropyl-1H-imidazol-2-yl)pyrrolidine-1-carbonyl)-5a,5b,8,8,11a-pentamethyl-1-(prop-1-en-2-yl)icosahydro-1H-cyclopenta[a]chrysen-9-yl)oxy)carbonyl)-2,2-dimethylcyclobutane-1-carboxylic acid]	0.138 nM	437 µg·h/mL	19600 ng/mL	–	–
C=C(C)[C@@H]1CC[C@]2(C(=O)N3CCC[C@H]3c3ncc(-c4ccccc4)o3)CC[C@]3(C)[C@H](CC[C@@H]4[C@@]5(C)CC[C@H](OC(=O)[C@H]6C[C@@H](C(=O)O)C6(C)C)C(C)(C)[C@@H]5CC[C@]43C)[C@@H]12 [Compound 15, (1R,3S)-2,2-dimethyl-3-((((1R,3aS,5aR,5bR,7aR,9S,11aR,11bR,13aR,13bR)-5a,5b,8,8,11a-pentamethyl-3a-((S)-2-(5-phenyloxazol-2-yl)pyrrolidine-1-carbonyl)-1-(prop-1-en-2-yl)icosahydro-1H-cyclopenta[a]chrysen-9-yl)oxy)carbonyl)cyclobutane-1-carboxylic acid]	124 nM	208 µg·h/mL	6510 ng/mL	–	–
CC(C)(CC(=O)O)CC(=O)O[C@H]1CC[C@]2(C)[C@H]3CC[C@@H]4[C@H]5[C@H](C6(C)CC6)CC[C@]5(C(=O)N5CCC[C@H]5c5ncc(-c6ccccn6)[nH]5)CC[C@@]4(C)[C@]3(C)CC[C@H]2C1(C)C [Compound 63, 3,3-dimethyl-5-oxo-5-(((1R,3aS,5aR,5bR,7aR,9S,11aR,11bR,13aR,13bR)-5a,5b,8,8,11a-pentamethyl-1-(1-methylcyclopropyl)-3a-((S)-2-(5-(pyridin-2-yl)-1H-imidazol-2-yl)pyrrolidine-1-carbonyl)icosahydro-1H-cyclopenta[a]chrysen-9-yl)oxy)pentanoic acid]	3.6 nM	120 µg·h/mL	4470 ng/mL	–	–
